In patent US20200368166A1, “Oral Formulations And Uses Thereof” (Eustralis Pharmaceuticals Limited (Trading As Pressura …, priority 2018, published 2020):
Where “and” joins values, the source holds several entries; their conditions need not be identical. Equal values may be shown once.

Assays:
Format in all cases: physicochemical
pH of the API = experiment: pH of the API
From the text: Compound (Ia) HCl (API) is an acidic compound with an approximate pH of 2.5. Compound of Formula (I), in particular compound (Ia) as shown below, is used in all examples, and in particular the 2HCl salt of compound (Ia) (Compound (Ia) 2HCl).

[1] = Particle size distribution (Malvern Mastersizer)
Experimental: The particle size distribution of compound (Ia) 2HCl (API) was determined using a Malvern Mastersizer. D(0.1) means that 10% of the sample is present as particles smaller than this size. D(0.5) means that 50% of the sample is present as particles smaller than this size. D(0.9) means that 90% of the sample is present as particles smaller than this size.

[2] = Bulk and tap density, Carr's index
Experimental: Measurement of the bulk and tap density provides information on the flow properties and compressibility of the API. The bulk density is measured as the density of the material as it is “poured” or passively filled into a measuring vessel, whereas the tap density is a limiting density attained after “tapping in” the material. A Carr's index greater than 25 is considered to be an indication of poor flowability, and below 15, of good flowability.
Measurement of the bulk and tap density provides information on the flow and compressibility of the blend. Bulk and tap density and the subsequent Carr's index were determined on the Formulation 5 blend and the results are given in Table 13.

[3] = Solubility in dissolution media (sink conditions test); conditions: 37° C.
Experimental: Selection of the dissolution medium is based on the solubility data and the dose range in order to ensure that sink conditions are met. The term ‘sink conditions’ is defined as the volume of medium at least greater than three times that required to form a saturated solution of drug substance.
The sink conditions test was performed as per USP 38 <1092> in the following dissolution medium: • 1. HCl 0.01 N, • 2. Buffer pH 6.8, • 3. Water.
Solubility determinations were performed on 75 mg of Compound (Ia) HCl dissolved in 250 mL of different media at 37° C. and stirred slightly. The λmax was determined by UV scan between 200-400 nm. Refer to Table 18 for the results.

[4] = Intrinsic dissolution rate (IDR) of compressed disc; conditions: 200 mg disc, 100 rpm, 37° C.
Experimental: The IDR is determined by monitoring the drug release rate of a compressed disc of the pre-formulated drug. The IDR is independent of formulation effects and measures the intrinsic properties of the drug and salts as a function of dissolution media effects such as pH and ionic strength. A comparison of the IDR of the drug in water with that obtained in acid and alkali will provide a measure of the drug's ability to control its immediate microenvironment.
The IDR was determined by preparing a compressed disc containing 200 mg of Compound (Ia) 2HCl using slow compression. All metal surfaces were pre-lubricated using 4 drops of a 5% w/v solution of stearic acid in chloroform. The solvent was allowed to evaporate, the Compound (Ia) 2HCl added and the sample slowly compressed to 6 tonne. This pressure was maintained for 4 minutes to ensure adequate compression.
The discs were then rotated at 100 rpm, 25 mm from the bottom of a 1 litre flat bottomed dissolution vessel containing 1 litre of fluid maintained at 37° C. Manual sampling, with a sampling volume of 5 mL, was employed at 5, 10, 15, 30 and 60 minutes. The amount of drug released was then monitored, by HPLC. Compound (Ia) 2HCl was evaluated in 0.01N HCl (equivalent to gastric pH), phosphate buffer pH 6.8 (intestinal) and distilled water. Refer Table 19 for the percentage of Compound (Ia) 2HCl released.

[5] = API milled prior to GLP tablet manufacture (Table 16)

Cc1ccccc1-c1cc(N2CCN(C)CC2)ncc1C(=O)N(C)Cc1cc(C(F)(F)F)cc(C(F)(F)F)c1 [Compound (Ia) 2HCl]
approximate pH (pH of the API): ~2.5 | Particle Size D (0.1) ([1]; API before milling (Table 1)): 8.41 μm | Particle Size D (0.5) ([1]; API before milling (Table 1)): 76.13 μm | Particle Size D (0.9) ([1]; API before milling (Table 1)): 404.59 μm | Particle Size D (0.1) [1, 5]: 1.2 μm | Particle Size D (0.5) [1, 5]: 38.6 μm | Particle Size D (0.9) [1, 5]: 133.3 μm | Bulk Density [2]: 0.63 g/mL | Carr's Index [2]: 24.29% | Tap Density [2]: 0.83 g/mL | Appearance ([3]; 75 mg in 250 mL 0.01N Hydrochloric Acid (pH 2.0), full cell: Clear, homogeneous, translucent to light yellow.): Clear, | Appearance ([3]; 75 mg in 250 mL Phosphate Buffer (pH 6.8), full cell: White, turbid, heterogeneous liquid.): White, turbid, | Time to Dissolve ([3]; 75 mg in 250 mL Purified Water): 21 s | Appearance ([3]; 75 mg in 250 mL Purified Water, full cell: Clear, homogeneous, translucent to light yellow.): Clear, | % Released (IDR) ([4]; 0.01N 2HCl, t = 0 mins): 0% | % Released (IDR) ([4]; 0.01N 2HCl, t = 5 mins): 80% and 70% | % Released (IDR) ([4]; 0.01N 2HCl, t = 10 mins): 100% and 97% | % Released (IDR) ([4]; 0.01N 2HCl, t = 15 mins): 101% and 98% | % Released (IDR) ([4]; 0.01N 2HCl, t = 30 mins): 102% and 99% | % Released (IDR) ([4]; 0.01N 2HCl, t = 60 mins): 101% and 98% | % Released (IDR) ([4]; Phosphate buffer pH 6.8, t = 0 mins): 0% | % Released (IDR) ([4]; Phosphate buffer pH 6.8, t = 5 mins): 68% and 60% | % Released (IDR) ([4]; Phosphate buffer pH 6.8, t = 10 mins): 85% and 81% | % Released (IDR) ([4]; Phosphate buffer pH 6.8, t = 15 mins): 72% and 83% | % Released (IDR) ([4]; Phosphate buffer pH 6.8, t = 30 mins): 73% and 77% | % Released (IDR) ([4]; Phosphate buffer pH 6.8, t = 60 mins): 59% and 60% | % Released (IDR) ([4]; Water, t = 0 mins): 0% | % Released (IDR) ([4]; Water, t = 5 mins): 84% and 71% | % Released (IDR) ([4]; Water, t = 10 mins): 101% and 98% | % Released (IDR) ([4]; Water, t = 15 mins): 101% and 100% | % Released (IDR) ([4]; Water, t = 30 mins): 100% and 102% | % Released (IDR) ([4]; Water, t = 60 mins): 100%
